Consider 2 molecules from patent publication EP3046573B1, “AMYLIN ANALOGUES” (Zealand Pharma A/S, priority 2013, dated 2015).

For data set [1], the target named is T1, human amylin receptor 3 (hAMYR3) consisting of hCTR2 co-expressed with human Receptor Activity Modifying Protein 3 (hRAMP3) (Homo sapiens, UniProt O60896+P30988).
T1 construct: expressed in transfected cells
T1 sequence (P30988 25-474): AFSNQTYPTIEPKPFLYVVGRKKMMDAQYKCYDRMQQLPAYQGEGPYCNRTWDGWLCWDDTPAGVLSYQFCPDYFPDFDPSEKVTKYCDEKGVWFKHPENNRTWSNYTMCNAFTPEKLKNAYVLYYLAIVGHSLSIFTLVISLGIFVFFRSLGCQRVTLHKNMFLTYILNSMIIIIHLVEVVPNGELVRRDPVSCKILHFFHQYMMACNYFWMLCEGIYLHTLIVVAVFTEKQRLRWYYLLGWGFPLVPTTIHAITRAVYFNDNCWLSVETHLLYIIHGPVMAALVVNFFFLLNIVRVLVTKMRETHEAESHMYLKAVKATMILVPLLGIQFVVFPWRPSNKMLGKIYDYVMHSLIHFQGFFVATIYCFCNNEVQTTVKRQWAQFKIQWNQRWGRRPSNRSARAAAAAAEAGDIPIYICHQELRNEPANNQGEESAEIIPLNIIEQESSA
T1 sequence (O60896 24-148 partner): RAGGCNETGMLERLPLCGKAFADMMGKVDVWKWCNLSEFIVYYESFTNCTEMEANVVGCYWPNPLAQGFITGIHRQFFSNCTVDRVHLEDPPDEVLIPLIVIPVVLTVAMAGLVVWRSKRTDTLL
Put plainly: hAMYR3 assay: induction of cAMP (AlphaScreen cAMP Assay kit) in COS7 cells expressing hAMYR3. The data set is classed as cell-based. Particulars: cAMP induction in COS7 cells expressing hAMYR3; average of a minimum of 3 determinations; read-out: hAMY R3 EC50. In outline:
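cAMP accumulation read by AlphaScreen in lysates of RAMP-naive COS7 cells stably transfected with hCTR2 plus hRAMP3. Cells exposed to peptide dilutions for 15 min, 37° C, with 100 µM IBMX; 4PL fitting gave EC50 and efficacy relative to pramlintide.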

The target in data set [2] is T2, human calcitonin receptor (hCTR2) (Homo sapiens, UniProt P30988).
T2 construct: expressed in transfected cells
T2 sequence (P30988 25-474): T1 sequence (P30988 25-474)
Put plainly: hCTR2 assay: induction of cAMP (AlphaScreen cAMP Assay kit) in COS7 cells expressing hCTR2. The data set is classed as cell-based. A digest of the protocol:
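Peptide-induced cAMP in hCTR2-expressing COS7 cells, 15 min at 37° C with phosphodiesterase inhibitor IBMX (100 µM), detected by AlphaScreen; potency from 4PL curves.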
(Alpha assays give light when donor and acceptor beads are brought close together.)

Data set [3] can be described thus: Solubility assessment (turbidity absorbance at 325 nm). The data set is classed as physicochemical. The note with it: stock 2 mg/ml diluted 1:1, ambient temperature (typically 25°C), n=1; for Solubility, Acetate buffer pH 4: 100 mM acetate buffer pH 4.0; for Solubility, Acetate buffer pH 5: 100 mM acetate buffer pH 5.0; for Solubility, Histidine buffer pH 6: 100 mM histidine buffer pH 6.0; for Solubility, Histidine buffer pH 7: 100 mM histidine buffer pH 7.0; for Solubility, Phosphate buffer pH 6: 100 mM phosphate buffer pH 6.0; for Solubility, Phosphate buffer pH 7: 100 mM phosphate buffer pH 7.0; for Solubility, Phosphate buffer pH 7.5: 100 mM phosphate buffer pH7.5. In outline: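 Turbidity read as absorbance at 325 nm (also 280 nm), single samples at ambient temperature (typically 25°C); ≤ 0.02 units counts as ≥ 1 mg/ml soluble. Samples made by 1:1 dilution of a 2 mg/ml acidic stock into 100 mM acetate, histidine or phosphate buffers, pH 4.0–7.5.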

Read-outs that look alike come from different tables or passages of the source. Numbered stars: 1 amine (or outer) side, 2 acyl side, 3 side chain; on linkers, the order of the positions; unused ones are H or OH. Bridge positions count the residues as written; N and C are the ends. Square brackets hold non-standard residues; d marks the D form. Peptide text beside a SMILES is read from it. * marks the point of attachment. C20 diacid = O=C(O)CCCCCCCCCCCCCCCCCCC(=O)*; γGlu = O=C(O)[C@H](CCC(=O)[*:2])N[*:1]; NMeI = CC[C@H](C)[C@H](NC)C(=O)O; Sar = CNCC(=O)O

Consider `CC[C@H](C)[C@@H](C(=O)N[C@@H](CC(C)C)C(=O)N[C@@H](CO)C(=O)N[C@@H](CO)C(=O)N[C@H](C(=O)N[C@@H](CCC(=O)O)C(=O)N[C@H](C(=O)NCC(=O)N[C@@H](CO)C(=O)N[C@@H](CCC(=O)O)C(=O)N[C@H](C(=O)N1CCC[C@H]1C(N)=O)[C@@H](C)O)C(C)C)[C@@H](C)O)N(C)C(=O)[C@H](C)NC(=O)CN(C)C(=O)[C@H](Cc1ccccc1)NC(=O)[C@H](CO)NC(=O)[C@H](CO)NC(=O)[C@H](CO)NC(=O)[C@H](CO)NC(=O)[C@H](CCCNC(=N)N)NC(=O)[C@H](Cc1c[nH]cn1)NC(=O)[C@H](CC(C)C)NC(=O)[C@H](Cc1ccccc1)NC(=O)[C@H](CCC(=O)O)NC(=O)[C@H](C)NC(=O)[C@H](CC(C)C)NC(=O)[C@H](CCCNC(=N)N)NC(=O)[C@H](CO)NC(=O)[C@@H](NC(=O)[C@H](C)NC(=O)[C@@H]1CSSC[C@H](NC(=O)[C@H](CCCNC(=N)N)NC(=O)CC[C@H](NC(=O)CCCCCCCCCCCCCCCCCCC(=O)O)C(=O)O)C(=O)N[C@@H](CC(N)=O)C(=O)N[C@@H]([C@@H](C)O)C(=O)N[C@@H](C)C(=O)N[C@@H]([C@@H](C)O)C(=O)N1)[C@@H](C)O` [Compound 124, [19CD]-isoGlu-RC()NTATC()ATSRLAEFLHRSSSSF-Gly(Me)-A-Ile(Me)-LSSTEVGSETP-NH2] ({C20 diacid-γGlu}-RCNTATCATSRLAEFLHRSSSSF[Sar]A[NMeI]LSSTEVGSETP-NH2; disulfide 2-7), for which the EC50 in data set [1] is 0.17 nM. Further, the EC50 in data set [2] (cAMP induction in COS7 cells expressing hCTR2, average of a minimum of 3 determinations, read-out: hCTR2 EC50) was 0.14 nM. In data set [3], the “Solubility, Acetate buffer pH 4” value is “SS (SS indicates solubility ≥ 1mg/ml)”; the “Solubility, Acetate buffer pH 5” value is given as “SS (SS indicates solubility ≥ 1mg/ml)”; the “Solubility, Histidine buffer pH 6” value is listed as “SS (SS indicates solubility ≥ 1mg/ml)”; the “Solubility, Histidine buffer pH 7” value was “SS (SS indicates solubility ≥ 1mg/ml)”. For the same molecule, in data set [3], the “Solubility, Phosphate buffer pH 6” value is on record as “SS (SS indicates solubility ≥ 1mg/ml)”; the “Solubility, Phosphate buffer pH 7” value is “SS (SS indicates solubility ≥ 1mg/ml)”; the “Solubility, Phosphate buffer pH 7.5” value is “SS (SS indicates solubility ≥ 1mg/ml)”.
Take `CC[C@H](C)[C@@H](C(=O)N[C@@H](CC(C)C)C(=O)N[C@@H](CO)C(=O)N[C@@H](CO)C(=O)N[C@H](C(=O)N[C@@H](CCC(=O)O)C(=O)N[C@H](C(=O)NCC(=O)N[C@@H](CO)C(=O)N[C@@H](CCC(=O)O)C(=O)N[C@H](C(=O)N1CCC[C@H]1C(N)=O)[C@@H](C)O)C(C)C)[C@@H](C)O)N(C)C(=O)[C@H](C)NC(=O)CN(C)C(=O)[C@H](Cc1ccccc1)NC(=O)[C@H](CO)NC(=O)[C@H](CO)NC(=O)[C@H](CO)NC(=O)[C@H](CO)NC(=O)[C@H](CCCNC(=N)N)NC(=O)[C@H](Cc1c[nH]cn1)NC(=O)[C@H](CC(C)C)NC(=O)[C@H](Cc1ccccc1)NC(=O)[C@H](CCC(=O)O)NC(=O)[C@H](C)NC(=O)[C@H](CC(C)C)NC(=O)[C@H](CCCNC(=N)N)NC(=O)[C@H](CCC(N)=O)NC(=O)[C@@H](NC(=O)[C@H](C)NC(=O)[C@@H]1CSSC[C@H](NC(=O)[C@H](CCCNC(=N)N)NC(=O)CC[C@H](NC(=O)CCCCCCCCCCCCCCCCCCC(=O)O)C(=O)O)C(=O)N[C@@H](CO)C(=O)N[C@@H]([C@@H](C)O)C(=O)N[C@@H](C)C(=O)N[C@@H]([C@@H](C)O)C(=O)N1)[C@@H](C)O` [Compound 126, [19CD]-isoGlu-RC()STATC()ATQRLAEFLHRSSSSF-Gly(Me)-A-Ile(Me)-LSSTEVGSETP-NH2] ({C20 diacid-γGlu}-RCSTATCATQRLAEFLHRSSSSF[Sar]A[NMeI]LSSTEVGSETP-NH2; disulfide 2-7): the EC50 in data set [1] came out at 0.28 nM. The EC50 in data set [2] amounted to 0.21 nM. For the same molecule, in data set [3], the “Solubility, Acetate buffer pH 4” value is “SS (SS indicates solubility ≥ 1mg/ml)”; the “Solubility, Acetate buffer pH 5” value is given as “SS (SS indicates solubility ≥ 1mg/ml)”; the “Solubility, Histidine buffer pH 6” value was “SS (SS indicates solubility ≥ 1mg/ml)”; the “Solubility, Histidine buffer pH 7” value is on record as “SS (SS indicates solubility ≥ 1mg/ml)”. In data set [3], the “Solubility, Phosphate buffer pH 6” value is recorded as “SS (SS indicates solubility ≥ 1mg/ml)”; the “Solubility, Phosphate buffer pH 7” value was “SS (SS indicates solubility ≥ 1mg/ml)”; the “Solubility, Phosphate buffer pH 7.5” value was “SS (SS indicates solubility ≥ 1mg/ml)”.

As usually defined, the EC50 is the concentration at which the effect is half-maximal.
